According to the supplement of paper PMC8960247:
Where a name gives a salt, the structure may show the parent alone. ± gives the standard error.
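Further: immortalized renal angiomyolipoma cells stably carrying empty vector or TSC2, dosed in 384-well plates in DMEM, viability normalized to vehicle-treated wells within each plate.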

What follows are compounds tested on 621-103 (TSC2-rescued) (assay: relative viability vs DMSO; higher = less cytotoxic). Settings: 0.1 µM; serum: 10% FBS; 72 h.
Work on `C[C@]12C=CC(=O)N[C@@H]1CC[C@@H]1[C@@H]2CC[C@]2(C)[C@@H](C(=O)Nc3cc(C(F)(F)F)ccc3C(F)(F)F)CC[C@@H]12` [Dutasteride (Avodart)] yielded a relative viability of 101 ± 1.4%.
For `Cc1cc(Nc2cc(N3CCN(C)CC3)nc(/C=C/c3ccccc3)n2)n[nH]1` [ENMD-2076], the relative viability was 102 ± 2.1%.
With `COc1cc2c(cc1Cc1cccc(Cl)c1F)c(=O)c(C(=O)O)cn2[C@H](CO)C(C)C` [Elvitegravir] the relative viability was 98.96 ± 0.9%.
With `Nc1nc(=O)n([C@@H]2CS[C@H](CO)O2)cc1F` [Emtricitabine] the relative viability was 105 ± 2.6%.
With `CCOC(=O)[C@H](CCc1ccccc1)N[C@@H](C)C(=O)N1CCC[C@H]1C(=O)O` [Enalapril Maleate] the relative viability was 100 ± 1.5%.
For `C[C@H](N[C@@H](CCc1ccccc1)C(=O)O)C(=O)N1CCC[C@H]1C(=O)O` [Enalaprilat], the relative viability was 98.36 ± 0.18%.
With `Cn1cc(C2=C(c3cn(C4CCN(Cc5ccccn5)CC4)c4ccccc34)C(=O)NC2=O)c2ccccc21` [Enzastaurin] the relative viability was 99.2 ± 0.55%.
Work on `CNC[C@H](O)c1ccc(O)c(O)c1` [Epinephrine bitartrate] yielded a relative viability of 92.99 ± 0.3%.
With `C/C(=C\c1csc(C)n1)[C@@H]1C[C@@H]2O[C@@H]2CCC[C@H](C)[C@H](O)[C@@H](C)C(=O)C(C)(C)[C@@H](O)CC(=O)O1` [Epothilone A] the relative viability was 30.8 ± 0.67%.
For `C/C(=C\c1csc(C)n1)[C@@H]1C[C@@H]2O[C@]2(C)CCC[C@H](C)[C@H](O)[C@@H](C)C(=O)C(C)(C)[C@@H](O)CC(=O)O1` [Epothilone B (EPIO906)], the relative viability was 35.28 ± 0.27%.
Compound `C#Cc1cccc(Nc2ncnc3cc(OCCOC)c(OCCOC)cc23)c1` [Erlotinib] has a relative viability of 101.3 ± 0.39%.
Work on `COc1ccc2[nH]c([S@@+]([O-])Cc3ncc(C)c(OC)c3C)nc2c1` [Esomeprazole sodium (Nexium I.V.)] yielded a relative viability of 112 ± 4%.
`COc1cc([C@@H]2c3cc4c(cc3[C@@H](O[C@@H]3O[C@@H]5CO[C@@H](C)O[C@H]5[C@H](O)[C@H]3O)[C@H]3COC(=O)[C@H]23)OCO4)cc(OC)c1O` [Etoposide (Etopophos)] showed a relative viability of 98.7 ± 1%.

Same assay, conditions: 1 µM; serum: 10% FBS; 72 h
For `C[C@]12C=CC(=O)N[C@@H]1CC[C@@H]1[C@@H]2CC[C@]2(C)[C@@H](C(=O)Nc3cc(C(F)(F)F)ccc3C(F)(F)F)CC[C@@H]12` [Dutasteride (Avodart)], the relative viability was 101 ± 1.5%.
`Cc1cc(Nc2cc(N3CCN(C)CC3)nc(/C=C/c3ccccc3)n2)n[nH]1` [ENMD-2076] showed a relative viability of 73 ± 2.3%.
`COc1cc2c(cc1Cc1cccc(Cl)c1F)c(=O)c(C(=O)O)cn2[C@H](CO)C(C)C` [Elvitegravir] was tested, and the relative viability was 101.1 ± 1%.
`Nc1nc(=O)n([C@@H]2CS[C@H](CO)O2)cc1F` [Emtricitabine] was tested, and the relative viability was 100 ± 3.7%.
`CCOC(=O)[C@H](CCc1ccccc1)N[C@@H](C)C(=O)N1CCC[C@H]1C(=O)O` [Enalapril Maleate] was tested, and the relative viability was 99.6 ± 0.35%.
For `C[C@H](N[C@@H](CCc1ccccc1)C(=O)O)C(=O)N1CCC[C@H]1C(=O)O` [Enalaprilat], the relative viability was 101 ± 2.5%.
In the case of `Cn1cc(C2=C(c3cn(C4CCN(Cc5ccccn5)CC4)c4ccccc34)C(=O)NC2=O)c2ccccc21` [Enzastaurin], the relative viability is reported as 102.1 ± 0.61%.
Work on `CNC[C@H](O)c1ccc(O)c(O)c1` [Epinephrine bitartrate] yielded a relative viability of 96 ± 1.2%.
`C/C(=C\c1csc(C)n1)[C@@H]1C[C@@H]2O[C@@H]2CCC[C@H](C)[C@H](O)[C@@H](C)C(=O)C(C)(C)[C@@H](O)CC(=O)O1` [Epothilone A] showed a relative viability of 26.7 ± 0.62%.
Compound `C/C(=C\c1csc(C)n1)[C@@H]1C[C@@H]2O[C@]2(C)CCC[C@H](C)[C@H](O)[C@@H](C)C(=O)C(C)(C)[C@@H](O)CC(=O)O1` [Epothilone B (EPIO906)] has a relative viability of 48.9 ± 1.2%.
`C#Cc1cccc(Nc2ncnc3cc(OCCOC)c(OCCOC)cc23)c1` [Erlotinib] was tested, and the relative viability was 101 ± 2.7%.
Compound `COc1ccc2[nH]c([S@@+]([O-])Cc3ncc(C)c(OC)c3C)nc2c1` [Esomeprazole sodium (Nexium I.V.)] has a relative viability of 102 ± 2.5%.
In the case of `COc1cc([C@@H]2c3cc4c(cc3[C@@H](O[C@@H]3O[C@@H]5CO[C@@H](C)O[C@H]5[C@H](O)[C@H]3O)[C@H]3COC(=O)[C@H]23)OCO4)cc(OC)c1O` [Etoposide (Etopophos)], the relative viability is reported as 91.5 ± 2.3%.

Same assay, conditions: 10 µM; serum: 10% FBS; 72 h
Compound `C[C@]12C=CC(=O)N[C@@H]1CC[C@@H]1[C@@H]2CC[C@]2(C)[C@@H](C(=O)Nc3cc(C(F)(F)F)ccc3C(F)(F)F)CC[C@@H]12` [Dutasteride (Avodart)] has a relative viability of 94.61 ± 0.46%.
For `Cc1cc(Nc2cc(N3CCN(C)CC3)nc(/C=C/c3ccccc3)n2)n[nH]1` [ENMD-2076], the relative viability was 12.7 ± 0.4%.
For `COc1cc2c(cc1Cc1cccc(Cl)c1F)c(=O)c(C(=O)O)cn2[C@H](CO)C(C)C` [Elvitegravir], the relative viability was 99.17 ± 0.59%.
`Nc1nc(=O)n([C@@H]2CS[C@H](CO)O2)cc1F` [Emtricitabine] showed a relative viability of 98.4 ± 1.5%.
For `CCOC(=O)[C@H](CCc1ccccc1)N[C@@H](C)C(=O)N1CCC[C@H]1C(=O)O` [Enalapril Maleate], the relative viability was 103 ± 2.4%.
`C[C@H](N[C@@H](CCc1ccccc1)C(=O)O)C(=O)N1CCC[C@H]1C(=O)O` [Enalaprilat] was tested, and the relative viability was 96.34 ± 0.17%.
With `Cn1cc(C2=C(c3cn(C4CCN(Cc5ccccn5)CC4)c4ccccc34)C(=O)NC2=O)c2ccccc21` [Enzastaurin] the relative viability was 95.6 ± 1.9%.
Work on `CNC[C@H](O)c1ccc(O)c(O)c1` [Epinephrine bitartrate] yielded a relative viability of 95.31 ± 0.25%.
`C/C(=C\c1csc(C)n1)[C@@H]1C[C@@H]2O[C@@H]2CCC[C@H](C)[C@H](O)[C@@H](C)C(=O)C(C)(C)[C@@H](O)CC(=O)O1` [Epothilone A] showed a relative viability of 50.59 ± 0.26%.
With `C/C(=C\c1csc(C)n1)[C@@H]1C[C@@H]2O[C@]2(C)CCC[C@H](C)[C@H](O)[C@@H](C)C(=O)C(C)(C)[C@@H](O)CC(=O)O1` [Epothilone B (EPIO906)] the relative viability was 60.1 ± 1.1%.
In the case of `C#Cc1cccc(Nc2ncnc3cc(OCCOC)c(OCCOC)cc23)c1` [Erlotinib], the relative viability is reported as 96.6 ± 3.3%.
With `COc1ccc2[nH]c([S@@+]([O-])Cc3ncc(C)c(OC)c3C)nc2c1` [Esomeprazole sodium (Nexium I.V.)] the relative viability was 86.24 ± 0.28%.
`COc1cc([C@@H]2c3cc4c(cc3[C@@H](O[C@@H]3O[C@@H]5CO[C@@H](C)O[C@H]5[C@H](O)[C@H]3O)[C@H]3COC(=O)[C@H]23)OCO4)cc(OC)c1O` [Etoposide (Etopophos)] gave a relative viability of 55.6 ± 0.8%.
